In the SangsterLogP compilation:

Tests used:
[1] = method code SF-AS, from DOI: 10.1002/qsar.19880070104; conditions: pH 7.4

Row | Structure (SMILES) | logD [1] | logP
1 | Cc1cccc(C)c1OC(=O)NCc1ccccc1CN1CCOCC1 | 3.54 | –
2 | CCN(CC)Cc1cccc(C(=O)Oc2c(C)cccc2C)c1 | – | 2.99
3 | Cc1cccc(C)c1NC(=O)OCc1cccc(CN2CCOCC2)c1 | 1.85 | –
4 | Cc1cccc(C)c1OCc1ccccc1CN1CCOCC1 | – | 4.16
5 | Cc1cccc(C)c1OC(=O)NCc1ccc(CN2CCOCC2)cc1 | 2.7 | –
6 | Cc1cccc(C)c1OC(=O)NCc1cccc(CN2CCOCC2)c1 | 2.91 | –
7 | Cc1cccc(C)c1NC(=O)c1ccccc1CN1CCOCC1 | 2.46 | –
8 | Cc1cccc(C)c1OC(=O)c1ccccc1CN1CCCC1 | – | 3.09
9 | Cc1cccc(C)c1NC(=O)OCc1ccccc1CN1CCOCC1 | 2.8 | –

More lines, now with the values ahead:

Row | logD [1] | logP | Structure (SMILES)
10 | 3.91 | – | Cc1cccc(C)c1OC(=O)c1cccc(CN2CCOCC2)c1
11 | 2.2 | – | Cc1cccc(C)c1NC(=O)OCc1ccc(CN2CCOCC2)cc1
12 | – | 1.76 | Cc1cccc(C)c1NC(=O)c1ccc(CN2CCOCC2)cc1
13 | – | 3.5 | Cc1cccc(C)c1OC(=O)c1ccc(CN2CCCCC2)cc1
14 | – | 3.2 | Cc1cccc(C)c1OC(=O)c1ccc(CN2CCCC2)cc1
15 | 3.92 | – | Cc1cccc(C)c1OC(=O)c1ccc(CN2CCOCC2)cc1
16 | 3.74 | – | Cc1cccc(C)c1OCc1cccc(CN2CCOCC2)c1
17 | 3.76 | – | Cc1cccc(C)c1OCc1ccc(CN2CCOCC2)cc1
18 | 3.48 | – | Cc1cccc(C)c1OC(=O)c1ccccc1CN1CCOCC1
19 | 3.34 | – | Cc1cccc(C)c1OC(=O)OCc1ccc(CN2CCOCC2)cc1
20 | 3.47 | – | Cc1cccc(C)c1OC(=O)OCc1cccc(CN2CCOCC2)c1
21 | – | 3.18 | Cc1cccc(C)c1OC(=O)c1cccc(CN2CCCC2)c1
